Test results published in patent publication US12342842B2, “Preparation for use in enhancing formation of short-chain fatty acids (SCFAs)” (Evonik Operations GmbH, priority 2019, dated 2025).

Assays:
human colonic microbiota [1] = test: I-screen fermentation, SCFA analysis with omega-3 amino acid salts, FFA and amino acids (Examples 5 and 6); type: cell-based; details: salts 1.4 mg/ml; for Iso-butyrate / Iso-valerate: 24 h in SIEM, FFA 0.95 mg/ml, amino acids 0.5 mg/ml, means of triplicates; for Iso-butyrate: control 1.21; for Iso-valerate: control 2.74; for Propionate/acetate ratio / Propionate / Acetate: FFA 0.96 mg/ml, L-lysine 0.49, L-arginine 0.52, L-ornithine 0.5 mg/ml; for Propionate/acetate ratio: control 0.48; for Propionate: control 7.37; for Acetate: control 15.21
human colonic microbiota [2] = test: I-screen intestinal screening model, microbiota composition by V4 16S rRNA gene sequencing (Example 1); type: cell-based; details: omega-3-lys, EE, fish oil 1.4 mg/ml, inulin 4 mg/ml, means of triplicates
From the text: To determine the effect of omega-3 compounds on adult colonic microbiota, an intestinal screening model was used (I-screen, TNO, the Netherlands), which corresponds to colonic environment. A translation of such in vitro experiment towards an application in a living organism (animal or human) requires the use of a colon-specific delivery form to circumvent absorption of fatty acids in upper parts of the gastrointestinal tract. The use of compositions comprising omega-3 compounds in formulations enabling a colon-specific delivery is part of the present invention. […]
The microbiota composition was analyzed by 16S rRNA gene amplicon sequencing of the V4 hypervariable region. […]
The amount of bacterial DNA in the i-screen DNA samples was determined by quantitative polymerase chain reaction (qPCR) using primers specific for the bacterial 16S rRNA gene: Forward primer: CGAAAGCGTGGGGAGCAAA; Reverse primer: GTTCGTACTCCCCAGGCGG; Probe: 6FAM-[…]-MGB.
Subsequently, PCR amplicons of the V4 hypervariable region of the 16S rRNA gene were generated for the individual samples by amplification of 500 pg of DNA as described by Kozich et al. (2013), using F515/R806 primers (Caporaso et al. 2011). […] The amount of amplified DNA per sample was quantified using the dsDNA 910 Reagent Kit on the Fragment Analyzer (Advanced Analytical). […]

Compound: N=C(N)NCCC[C@H](N)C(=O)O [Arg, L-arginine]
- Iso-butyrate (human colonic microbiota [1]): 1.21 mM
- Iso-valerate (human colonic microbiota [1]): 3.71 mM
- Propionate/acetate ratio (human colonic microbiota [1]): 0.40
- Propionate (human colonic microbiota [1]): 9.39 mM
- Acetate (human colonic microbiota [1]): 23.50 mM

Compound: NCCCC[C@H](N)C(=O)O [Lys, L-lysine]
- Iso-butyrate (human colonic microbiota [1]): 1.47 mM
- Iso-valerate (human colonic microbiota [1]): 3.57 mM
- Propionate/acetate ratio (human colonic microbiota [1]): 0.40
- Propionate (human colonic microbiota [1]): 9.49 mM
- Acetate (human colonic microbiota [1]): 24.03 mM

Compound: NCCC[C@H](N)C(=O)O [Orn, L-ornithine]
- Iso-butyrate (human colonic microbiota [1]): 1.37 mM
- Iso-valerate (human colonic microbiota [1]): 3.31 mM
- Propionate/acetate ratio (human colonic microbiota [1]): 0.36
- Propionate (human colonic microbiota [1]): 9.11 mM
- Acetate (human colonic microbiota [1]): 25.36 mM

Compound: inulin
- Effect on colonic microbiota after 24 h incubation (variance explained versus control) (human colonic microbiota [2]): 40.2%
